The structures appear in SMILES notation.

Data set [1] relates to Rattus norvegicus. Nature of the data set: Antialzheimer activity against in po dosed rat assessed as plasma concentration required to 50 % decrease in amyloid beta 40 in CSF measured after 3 hrs. Format: functional, organism-based.
Data set [2] concerns Rattus norvegicus. Nature of the data set: Antialzheimer activity against in po dosed rat assessed as decrease in amyloid beta 40 in CSF measured after 3 hrs. The format is functional.
The test system of data set [3] is Rhesus monkey. Nature of the data set: Antialzheimer activity against in po dosed rhesus monkey assessed as plasma concentration required to 50 % decrease in amyloid beta 40 in CSF measured after 3 hrs. The settings on record: Macaca mulatta. The format is functional, organism-based.
Data set [4] has as its system Rhesus monkey. Nature of the data set: Antialzheimer activity against in po dosed rhesus monkey assessed as decrease in amyloid beta 40 in CSF measured after 3 hrs. Format: functional. The settings on record: Macaca mulatta.
Data set [5] has as its target T1, Beta-secretase 1 (Homo sapiens, UniProt P56817). As to the kind of experiment: Inhibition of BACE1 (unknown origin).
Data set [6] has as its target T1, Beta-secretase 1. As to the kind of experiment: Inhibition of BACE1 (unknown origin) expressed in HEK293 cells expressing human APP with Swedish and London familial AD mutation. Format: cell-based.
For data set [7], the system named is Rattus norvegicus. Nature of the data set: Antialzheimer activity against in rat assessed as decrease in amyloid beta 40 in CSF at 10 mg/kg, po and measured after 3 hrs relative to control. The format is functional. On the set-up: scale not given: the % may be the effect or the level left.
Data set [8] can be described thus: Dissociation constant, pKa of compound by UV-metric spectrophotometric analysis. The format is physicochemical.
Data set [9] relates to MDR1 (human). Nature of the data set: Efflux ratio of apparent permeability across basolateral to apical membrane to apical to basolateral membrane in pig LLC-PK1 cells expressing human MDR1 at 1 uM. Format: ADME, cell-based, Sus scrofa.
Data set [10] is described as follows: Lipophilicity, log D of compound at pH 7 by HPLC analysis. Format: physicochemical. The settings on record: buffer.
The subject of data set [11] is MDR1 (rat). Nature of the data set: Efflux ratio of apparent permeability across basolateral to apical membrane to apical to basolateral membrane in pig LLC-PK1 cells expressing rat MDR1 at 1 uM. The format is ADME, cell-based, Sus scrofa.
Data set [12] can be described thus: Apparent permeability in pig LLC-PK1 cells. Format: ADME, cell-based, Sus scrofa.
Data set [13] deals with T2, Voltage-gated inwardly rectifying potassium channel KCNH2 (Homo sapiens, UniProt Q12809). As to the kind of experiment: Displacement of MK499 from human ERG expressed in HEK membrane by radio ligand binding competition assay. Format: toxicity, cell membranes, Cell membrane.
T2 sequence (Q12809 whole entry): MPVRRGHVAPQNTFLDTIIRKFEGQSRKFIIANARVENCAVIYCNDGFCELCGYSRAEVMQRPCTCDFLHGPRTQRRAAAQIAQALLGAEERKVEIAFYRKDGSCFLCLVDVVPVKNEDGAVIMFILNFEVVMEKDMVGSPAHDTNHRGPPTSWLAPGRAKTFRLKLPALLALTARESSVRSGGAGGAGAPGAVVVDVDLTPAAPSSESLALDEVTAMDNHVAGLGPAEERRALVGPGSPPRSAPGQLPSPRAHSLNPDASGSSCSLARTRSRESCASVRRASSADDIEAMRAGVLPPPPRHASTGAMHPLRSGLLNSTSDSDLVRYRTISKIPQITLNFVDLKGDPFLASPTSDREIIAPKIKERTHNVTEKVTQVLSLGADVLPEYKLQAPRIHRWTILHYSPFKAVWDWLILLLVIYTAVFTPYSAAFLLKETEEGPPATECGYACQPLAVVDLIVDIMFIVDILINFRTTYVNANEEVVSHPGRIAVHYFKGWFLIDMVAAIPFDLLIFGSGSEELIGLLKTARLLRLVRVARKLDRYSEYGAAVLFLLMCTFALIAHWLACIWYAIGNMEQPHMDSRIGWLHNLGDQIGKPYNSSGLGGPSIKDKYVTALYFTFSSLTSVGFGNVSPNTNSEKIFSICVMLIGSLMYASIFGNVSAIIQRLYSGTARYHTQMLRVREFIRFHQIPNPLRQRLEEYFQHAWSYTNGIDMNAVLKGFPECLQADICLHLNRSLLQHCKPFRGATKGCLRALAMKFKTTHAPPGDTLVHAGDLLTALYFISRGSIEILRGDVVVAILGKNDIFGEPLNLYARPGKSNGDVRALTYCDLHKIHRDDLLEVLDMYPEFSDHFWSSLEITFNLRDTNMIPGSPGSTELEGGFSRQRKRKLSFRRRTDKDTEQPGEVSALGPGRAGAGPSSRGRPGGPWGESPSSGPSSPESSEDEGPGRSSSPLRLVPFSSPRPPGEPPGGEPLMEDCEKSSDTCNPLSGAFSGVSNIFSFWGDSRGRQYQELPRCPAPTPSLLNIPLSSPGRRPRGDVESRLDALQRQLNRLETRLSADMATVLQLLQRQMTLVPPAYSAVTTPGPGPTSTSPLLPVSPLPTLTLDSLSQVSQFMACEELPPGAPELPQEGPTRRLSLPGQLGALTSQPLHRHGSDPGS
Data set [14] deals with Voltage-dependent L-type calcium channel subunit alpha-1C (Homo sapiens, UniProt Q13936). Nature of the data set: Inhibition of CAV1.2 (unknown origin).
Chain of Voltage-dependent L-type calcium channel subunit alpha-1C (Q13936 whole entry): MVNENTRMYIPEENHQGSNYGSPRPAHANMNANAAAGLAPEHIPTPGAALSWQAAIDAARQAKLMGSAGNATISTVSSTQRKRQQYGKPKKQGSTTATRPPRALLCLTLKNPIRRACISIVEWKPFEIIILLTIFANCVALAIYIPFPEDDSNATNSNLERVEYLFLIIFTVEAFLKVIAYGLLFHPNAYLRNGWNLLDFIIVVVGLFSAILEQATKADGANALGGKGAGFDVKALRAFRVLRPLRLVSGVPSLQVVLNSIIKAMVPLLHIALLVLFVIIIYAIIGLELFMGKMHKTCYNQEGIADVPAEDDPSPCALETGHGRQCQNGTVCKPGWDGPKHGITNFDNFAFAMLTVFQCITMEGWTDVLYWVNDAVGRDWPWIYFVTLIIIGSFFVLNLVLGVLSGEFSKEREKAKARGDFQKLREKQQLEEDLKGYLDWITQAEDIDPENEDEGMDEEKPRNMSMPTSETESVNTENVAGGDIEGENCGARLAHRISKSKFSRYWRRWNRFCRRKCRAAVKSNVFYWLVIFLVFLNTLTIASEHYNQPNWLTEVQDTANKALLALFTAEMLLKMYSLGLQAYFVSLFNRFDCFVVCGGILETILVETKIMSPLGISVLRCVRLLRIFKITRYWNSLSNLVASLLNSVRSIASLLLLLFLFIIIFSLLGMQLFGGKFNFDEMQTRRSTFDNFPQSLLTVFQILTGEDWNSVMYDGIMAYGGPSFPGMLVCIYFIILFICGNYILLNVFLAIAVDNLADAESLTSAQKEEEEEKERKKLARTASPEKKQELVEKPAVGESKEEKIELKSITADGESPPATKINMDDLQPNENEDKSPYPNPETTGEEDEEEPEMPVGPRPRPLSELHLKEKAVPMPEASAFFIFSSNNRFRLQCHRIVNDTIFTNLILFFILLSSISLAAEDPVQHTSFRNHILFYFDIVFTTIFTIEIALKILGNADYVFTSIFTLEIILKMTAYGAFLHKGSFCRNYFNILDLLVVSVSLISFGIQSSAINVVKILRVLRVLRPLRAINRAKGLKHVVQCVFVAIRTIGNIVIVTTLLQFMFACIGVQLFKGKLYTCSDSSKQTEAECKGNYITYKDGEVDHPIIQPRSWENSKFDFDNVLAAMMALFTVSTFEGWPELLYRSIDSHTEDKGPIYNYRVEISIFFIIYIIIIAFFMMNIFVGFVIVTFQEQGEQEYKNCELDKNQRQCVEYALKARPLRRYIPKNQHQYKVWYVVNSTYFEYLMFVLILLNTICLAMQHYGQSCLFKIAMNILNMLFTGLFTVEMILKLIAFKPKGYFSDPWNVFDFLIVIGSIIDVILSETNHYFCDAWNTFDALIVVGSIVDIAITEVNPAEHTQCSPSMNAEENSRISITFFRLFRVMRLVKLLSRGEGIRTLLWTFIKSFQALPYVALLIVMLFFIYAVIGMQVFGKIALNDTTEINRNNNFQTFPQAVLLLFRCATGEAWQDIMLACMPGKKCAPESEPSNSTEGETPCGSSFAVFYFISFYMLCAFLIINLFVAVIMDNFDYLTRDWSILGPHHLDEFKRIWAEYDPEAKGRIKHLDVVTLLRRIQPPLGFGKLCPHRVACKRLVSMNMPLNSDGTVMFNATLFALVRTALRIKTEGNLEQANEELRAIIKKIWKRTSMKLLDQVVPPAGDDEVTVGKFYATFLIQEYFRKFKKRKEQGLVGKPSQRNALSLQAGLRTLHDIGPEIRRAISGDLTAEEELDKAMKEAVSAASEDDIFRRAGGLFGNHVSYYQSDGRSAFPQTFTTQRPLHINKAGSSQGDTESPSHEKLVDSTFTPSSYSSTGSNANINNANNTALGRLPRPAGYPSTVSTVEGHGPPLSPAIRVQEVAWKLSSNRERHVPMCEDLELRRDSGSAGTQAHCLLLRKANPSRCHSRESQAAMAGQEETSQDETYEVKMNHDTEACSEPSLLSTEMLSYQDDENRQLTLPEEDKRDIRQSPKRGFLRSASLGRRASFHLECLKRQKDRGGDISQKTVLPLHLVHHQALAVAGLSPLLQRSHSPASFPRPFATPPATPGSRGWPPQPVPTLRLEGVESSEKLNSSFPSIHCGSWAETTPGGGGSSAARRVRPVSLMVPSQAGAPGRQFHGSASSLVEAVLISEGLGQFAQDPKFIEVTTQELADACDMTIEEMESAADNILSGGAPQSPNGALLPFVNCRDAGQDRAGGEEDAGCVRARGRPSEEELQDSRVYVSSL
In data set [15] the target is Cathepsin D (Homo sapiens, UniProt P07339). Nature of the data set: Inhibition of human cathepsin D.
Chain of Cathepsin D (P07339 65-162 limits assumed): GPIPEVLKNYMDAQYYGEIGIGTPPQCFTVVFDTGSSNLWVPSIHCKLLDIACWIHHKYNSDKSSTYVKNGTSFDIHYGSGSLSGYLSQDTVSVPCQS
Chain of Cathepsin D (P07339 169-412 limits assumed): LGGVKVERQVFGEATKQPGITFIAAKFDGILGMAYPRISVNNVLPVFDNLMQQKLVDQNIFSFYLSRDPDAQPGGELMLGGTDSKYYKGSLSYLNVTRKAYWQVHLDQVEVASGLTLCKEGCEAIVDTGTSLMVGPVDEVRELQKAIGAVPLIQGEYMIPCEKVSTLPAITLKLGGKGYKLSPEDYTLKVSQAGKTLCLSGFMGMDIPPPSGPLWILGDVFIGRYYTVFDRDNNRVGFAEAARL
Data set [16] has as its target T3, Renin (Homo sapiens, UniProt P00797).
T3 sequence (P00797 whole entry): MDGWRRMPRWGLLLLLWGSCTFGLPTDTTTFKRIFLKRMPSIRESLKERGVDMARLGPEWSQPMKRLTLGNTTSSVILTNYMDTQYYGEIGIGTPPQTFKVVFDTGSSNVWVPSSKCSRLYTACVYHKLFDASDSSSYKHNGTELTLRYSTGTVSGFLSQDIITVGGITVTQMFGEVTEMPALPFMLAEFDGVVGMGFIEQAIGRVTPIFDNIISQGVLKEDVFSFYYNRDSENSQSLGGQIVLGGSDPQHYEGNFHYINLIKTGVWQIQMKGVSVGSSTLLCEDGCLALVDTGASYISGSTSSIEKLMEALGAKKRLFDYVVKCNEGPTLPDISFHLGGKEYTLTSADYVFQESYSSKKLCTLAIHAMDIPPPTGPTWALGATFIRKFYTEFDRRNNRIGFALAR
Nature of the data set: Inhibition of human renin.

Data set [17] concerns the target Sodium channel protein type 2 subunit alpha (Homo sapiens, UniProt Q99250). Nature of the data set: Inhibition of NaV1.2 (unknown origin).
For data set [18], the target named is T4, Cathepsin E (Homo sapiens, UniProt P14091).
T4 sequence (P14091 whole entry): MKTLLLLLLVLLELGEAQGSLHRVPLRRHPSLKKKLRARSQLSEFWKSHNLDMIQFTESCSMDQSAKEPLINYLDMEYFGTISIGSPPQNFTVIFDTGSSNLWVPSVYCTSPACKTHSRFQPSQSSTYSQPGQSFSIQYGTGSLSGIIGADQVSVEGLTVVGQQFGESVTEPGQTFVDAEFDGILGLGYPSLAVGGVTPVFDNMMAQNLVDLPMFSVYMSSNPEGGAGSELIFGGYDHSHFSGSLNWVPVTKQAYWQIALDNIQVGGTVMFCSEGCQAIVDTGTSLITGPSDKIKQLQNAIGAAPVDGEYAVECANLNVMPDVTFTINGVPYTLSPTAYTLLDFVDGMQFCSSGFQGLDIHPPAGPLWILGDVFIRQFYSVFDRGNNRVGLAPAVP
As to the kind of experiment: Inhibition of human cathepsin E.

Data set [19] is described as follows: Drug concentration in rat plasma at 10 mg/kg, po after 3 hrs. The format is ADME, organism-based.
The nature of data set [20]: Drug concentration in rat CSF at 10 mg/kg, po after 3 hrs. The format is ADME, organism-based, Cerebrospinal fluid. Conditions: read-out: Ct.
Data set [21] in a line: Free drug concentration in human plasma. The format is ADME, cell-free.
Data set [22] addresses T2, Voltage-gated inwardly rectifying potassium channel KCNH2. As to the kind of experiment: Inhibition of human ERG expressed in HEK cells by voltage clamp assay. Format: toxicity, cell-based.
A short description of data set [23]: Ratio of drug level in brain to plasma in rat. The settings on record: read-out: BPR. The format is ADME.
Data set [24] is described as follows: Free drug concentration in rat plasma. The format is ADME, cell-free.
The nature of data set [25]: Free drug concentration in cynomolgus monkey plasma. The format is ADME, cell-free, Macaca fascicularis.

T1 sequence (P56817 whole entry): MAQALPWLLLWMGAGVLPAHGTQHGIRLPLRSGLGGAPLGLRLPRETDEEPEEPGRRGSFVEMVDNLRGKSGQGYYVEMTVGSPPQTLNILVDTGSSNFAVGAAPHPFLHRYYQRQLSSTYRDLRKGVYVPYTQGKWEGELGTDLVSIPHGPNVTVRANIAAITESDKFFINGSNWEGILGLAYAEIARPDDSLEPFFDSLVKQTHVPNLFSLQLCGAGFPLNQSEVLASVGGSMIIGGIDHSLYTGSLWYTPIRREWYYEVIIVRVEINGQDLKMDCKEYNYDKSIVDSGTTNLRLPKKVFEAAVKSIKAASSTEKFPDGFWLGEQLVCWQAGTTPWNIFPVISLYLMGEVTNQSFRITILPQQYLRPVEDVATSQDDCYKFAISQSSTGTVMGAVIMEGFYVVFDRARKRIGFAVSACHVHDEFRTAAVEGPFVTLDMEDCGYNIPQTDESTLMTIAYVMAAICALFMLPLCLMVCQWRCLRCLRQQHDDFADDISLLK

For orientation: EC50 means the concentration needed to bring the measured effect to its halfway point. What is called ED50 is the dose at which the effect has come halfway, by size or by number of responders. Take `COc1cnc(C(=O)Nc2ccc(F)c([C@]3(C)CS(=O)(=O)C(C)(C)C(N)=N3)c2)cn1`: the EC50 in data set [1] amounted to 0.015 µM; in data set [3] it was 0.023 µM. The ED50 came to 1.2 mg/kg in data set [2] and 0.3 mg/kg in data set [4].

As a reminder, the Ki is a measure of affinity in units of concentration, obtained from inhibition or displacement. One may read the IC50 as the midpoint of a concentration-inhibition curve. As to `COc1cnc(C(=O)Nc2ccc(F)c([C@]3(C)CS(=O)(=O)[C@](C)(C(F)F)C(=N)N3)c2)cn1`, affinity in data set [5] was put at a Ki of 0.012 µM. Besides, in data set [6], inhibition was half-maximal at 0.171 µM (IC50).

For `C[C@@]1(c2nc(NC(=O)c3ccc(C#N)cn3)ccc2F)CS(=O)(=O)[C@](C)(CF)C(=N)N1`, the Ki in data set [5] was 0.003 µM. This compound also showed a concentration for half-maximal inhibition (IC50) in data set [6] of 0.007 µM.

For the compound `CC1(C)C(=N)N[C@](C)(c2nc(NC(=O)c3ccc(C#N)cn3)ccc2F)CS1(=O)=O`, the Activity in data set [7] is on record as 88%.

In turn, `Cc1cc(C#N)cnc1C(=O)Nc1ccc(F)c([C@]2(C)CS(=O)(=O)[C@@](C)(CF)C(=N)N2)n1` gave a Ki in [5] of 0.001 µM. Also, the Activity in [7] is on record as 92%. Also, the IC50 in data set [6] was found to be 0.001 µM.

The compound `C[C@]1(CF)C(=N)N[C@](C)(c2nc(NC(=O)c3ccc(C#N)cn3)ccc2F)CS1(=O)=O` displayed an inhibition constant (Ki) in data set [5] of 0.002 µM. The compound also yielded an IC50 in data set [6] of 0.003 µM.

With `Cc1cc(C#N)cnc1C(=O)Nc1ccc(F)c([C@]2(C)CS(=O)(=O)[C@](C)(C(F)F)C(=N)N2)n1`, the affinity in [5] corresponds to a Ki of 0.003 µM. Besides, the Activity in data set [7] worked out at 80%. Besides, in data set [6], it took 0.011 µM to reach half-maximal inhibition (IC50).

In data set [5], `COc1cnc(C(=O)Nc2ccc(F)c([C@]3(C)CS(=O)(=O)[C@](C)(CF)C(=N)N3)c2)cn1` gave a Ki of 0.004 µM. The compound also yielded an IC50 in [6] of 0.014 µM.

Usually pKa stands for the pH at which an ionisable group is half protonated. As usually defined, the efflux ratio is the permeability from basolateral to apical divided by that in the opposite direction, in the common usage. A word on the logD: it is the decadic logarithm of the distribution of all forms, ionised or not, between an organic phase and buffer at a given pH. One may read the Papp as a coefficient for how fast a substance crosses the barrier. In [8], `C[C@@]1(C(F)F)C(=N)N[C@](C)(c2nc(NC(=O)c3ccc(C#N)cn3)ccc2F)CS1(=O)=O` came in with a pKa of 5.95. Besides, the results for the efflux ratio at 1 µM in [9] and in data set [11] were 0.8 and 3.7, respectively. The same compound had a Ki in [5] of 0.01 µM. The compound also registered a logD in data set [10] of 2.5. The Papp in [12] is 32.7 ×10⁻⁶ cm/s. Besides, the IC50 in data set [6] came to 0.078 µM; in data set [13] it was 24.2 µM.

`Cc1cc(C#N)cnc1C(=O)Nc1ccc(F)c([C@]2(C)CS(=O)(=O)[C@@](C)(C(F)F)C(=N)N2)n1`: the figures for the IC50 in data set [14], in data set [17] and in data set [6] were 7.06 µM, above 30 µM and 0.003 µM, respectively. In addition, the Ki in data set [5] was 0.001 µM; in data set [15], 5.88 µM; in data set [16], above 19.1 µM; in [18] it was above 30.5 µM. The results for the EC50 in [1] and in data set [3] were 0.13 µM and 0.02 µM, respectively. For the same compound, the Activity in data set [7] was found to be 91%. Also, the ED50 in data set [2] is 3 mg/kg; in data set [4] it was below 3 mg/kg.

Compound `Cc1cc(C#N)cnc1C(=O)Nc1ccc(F)c([C@]2(C)CS(=O)(=O)[C@](C)(CF)C(=N)N2)n1` showed a Ki in [5] of 0.002 µM. Also, in data set [7], the Activity amounted to 68%. Half-maximal inhibition in [6] (IC50) was put at 0.002 µM.

With `COc1cnc(C(=O)Nc2ccc(F)c([C@]3(C)CS(=O)(=O)[C@@](C)(C(F)F)C(=N)N3)c2)cn1`, the affinity in data set [5], expressed as Ki, was 0.003 µM. Also, the IC50 in [6] worked out at 0.03 µM.

As for `C[C@@]1(c2nc(NC(=O)c3ccc(C#N)cn3)ccc2F)CS(=O)(=O)[C@@](C)(C(F)F)C(=N)N1`, the pKa in data set [8] came out at 6.19. Besides, the efflux ratio at 1 µM in data set [9] worked out at 1; in [11], 8.6. In data set [5], this compound gave an inhibition constant Ki of 0.003 µM. The logD in [10] was 2.3. The Activity in data set [7] worked out at 80%. Further, the figures for the concentration at 3 h in data set [19] and in data set [20] were 154 nM and 8 nM, respectively. The apparent permeability (Papp) in [12] amounted to 28.6 ×10⁻⁶ cm/s. Also, the results for the IC50 in data set [6] and in data set [13] were 0.011 µM and 2.42 µM, respectively.

In [5], `COc1cnc(C(=O)Nc2ccc(F)c([C@]3(C)CS(=O)(=O)[C@@](C)(CF)C(=N)N3)c2)cn1` came in with a Ki of 0.005 µM. This compound also had a half-inhibitory concentration (IC50) in data set [6] of 0.012 µM.

In general, fraction unbound refers to free concentration divided by total concentration. Consider `CN1C(N)=N[C@](C)(c2cc(NC(=O)c3ccc(F)cn3)ccc2F)CS1(=O)=O` [VERUBECESTAT], for which the pKa in [8] came out at 7.5. The EC50 in data set [1] was 0.11 µM; in data set [3], 0.041 µM. For the same compound, the unbound share (fraction unbound) in data set [21] came out at 0.24; in data set [24], 0.21; in data set [25] it was 0.18. For the same compound, the midpoint of inhibition in data set [22], the IC50, lay at 2.2 µM. Moreover, the ED50 in data set [2] is 0.69 mg/kg; in data set [4] it was below 3 mg/kg. The Kp in [23] came out at 0.23. Also, the apparent permeability (Papp) in data set [12] was 23 ×10⁻⁶ cm/s.

The values above are taken from ChEMBL document CHEMBL5131410, “Design and discovery of C2-fluoroalkyl iminothiazine dioxides as BACE inhibitors” (Bioorg Med Chem Lett, 2022).
